For the test, the target named is T1, FMS (h) (Homo sapiens, UniProt P07333).
T1 construct: purchased Reaction Biology Corp. (Kinase HotSpot service)
Briefly: Kinase HotSpot radiometric assay, activity on CSF-1R (FMS). Format: biochemical.

Setting [1] is: Table 3, read-out: IC50 (M) on FMS.

From patent US20240308994A1, “ISOXAZOLE DERIVATIVE OR PHARMACEUTICALLY ACCEPTABLE SALT THEREOF AND USE THEREOF” (INDUSTRY-UNIVERSITY COOPERATION FOUNDATION HANYANG …, priority 2021, published 2024) come the findings set out here.

The structures appear in SMILES notation. Where two headings read alike, the source gives them in different places. A value given as a limit tells only on which side of the number the result lay.

What is called IC50 is the concentration at which inhibition is half-maximal.

T1 sequence (P07333 20-972): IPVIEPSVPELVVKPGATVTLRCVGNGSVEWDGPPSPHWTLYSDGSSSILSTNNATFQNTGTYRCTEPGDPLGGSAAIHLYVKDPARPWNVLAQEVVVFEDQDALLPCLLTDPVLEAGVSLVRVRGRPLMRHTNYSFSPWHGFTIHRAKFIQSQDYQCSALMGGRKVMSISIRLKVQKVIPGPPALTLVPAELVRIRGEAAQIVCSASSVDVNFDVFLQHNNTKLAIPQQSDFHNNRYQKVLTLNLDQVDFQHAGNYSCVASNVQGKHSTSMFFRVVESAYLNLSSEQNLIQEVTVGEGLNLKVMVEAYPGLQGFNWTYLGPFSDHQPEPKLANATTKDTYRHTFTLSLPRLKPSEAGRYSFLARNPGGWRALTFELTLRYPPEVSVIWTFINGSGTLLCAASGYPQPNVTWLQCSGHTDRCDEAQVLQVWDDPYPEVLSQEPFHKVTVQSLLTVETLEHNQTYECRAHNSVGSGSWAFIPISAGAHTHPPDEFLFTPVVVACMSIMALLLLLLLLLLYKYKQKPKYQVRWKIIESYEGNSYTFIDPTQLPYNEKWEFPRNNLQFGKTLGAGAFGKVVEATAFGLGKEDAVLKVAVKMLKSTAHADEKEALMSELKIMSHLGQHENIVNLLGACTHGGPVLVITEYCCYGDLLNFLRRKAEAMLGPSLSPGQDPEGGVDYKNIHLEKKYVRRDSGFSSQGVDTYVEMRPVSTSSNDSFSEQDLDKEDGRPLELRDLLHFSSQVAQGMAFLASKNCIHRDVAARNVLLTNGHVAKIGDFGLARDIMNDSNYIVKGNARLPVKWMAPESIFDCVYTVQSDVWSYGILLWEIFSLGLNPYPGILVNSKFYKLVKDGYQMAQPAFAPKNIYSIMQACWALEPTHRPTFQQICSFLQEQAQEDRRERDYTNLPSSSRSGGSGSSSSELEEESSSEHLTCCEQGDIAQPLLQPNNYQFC

Turning to `Cc1cc(C(=O)Nc2ccc(C3CCNCC3)cc2C2=CCC(C)(C)CC2)no1` [Compound 64b, N-(4′,4′-dimethyl-5-(piperidin-4-yl)-2′,3′,4′,5′-tetrahydro-[1,1′-biphenyl]-2-yl)-5-methylisoxazole-3-carboxamide], the IC50 by setting is: (Table 1, read-out: IC50) under 1e-07 M; under setting [1], under 1e-07 M.
`Cc1cc(C(=O)Nc2cc(NC(=O)c3cc(N4CCN(C)CC4)cc(-n4ccnc4C)c3)ccc2C)no1` [Compound 5g, 5-methyl-N-(2-methyl-5-(3-(2-methyl-1H-imidazol-1-yl)-5-(4-methylpiperazin-1-yl)benzamido)phenyl)isoxazole-3-carboxamide]: the IC50 under setting [1] is over 1e-06 M.
With `CC(=O)N1CCC(c2ccc(NC(=O)c3cc(C)on3)c(C3=CCCCC3)c2)CC1` [Compound 83b, N-(5-(1-acetylpiperidin-4-yl)-2′,3′,4′,5′-tetrahydro-[1,1′-biphenyl]-2-yl)-5-methylisoxazole-3-carboxamide], the IC50 under setting [1] fell in the range of 1e-07 to 1e-06 M.
Take `Cc1cc(C(=O)Nc2ccc(C3CCNC3)cc2C2=CCCCC2)no1` (stereo not drawn) [Compound 60a, 5-methyl-N-(5-(pyrrolidin-3-yl)-2′,3′,4′,5′-tetrahydro-[1,1′-biphenyl]-2-yl)isoxazole-3-carboxamide]: the IC50 is 1e-07 to 1e-06 M (Table 1, read-out: IC50) and 1e-07 to 1e-06 M under setting [1].
For the molecule `CC[N+]1(CC)CCC(c2ccc(NC(=O)c3cc(C)on3)c(C3=CCCCC3)c2)CC1` [Compound 82b, 1,1-diethyl-4-(6-(5-methylisoxazole-3-carboxamido)-2′,3′,4′,5′-tetrahydro-[1,1′-biphenyl]-3-yl)piperidin-1-ium], the IC50 under setting [1] was under 1e-07 M.
Consider `Cc1cc(C(=O)Nc2ccc(C3CCN(CC4CC4)CC3)cc2C2=CCC(C)CC2)no1` (stereo not drawn) [Compound 77b, N-(5-(1-(cyclopropylmethyl)piperidin-4-yl)-4′-methyl-2,3,4,5′-tetrahydro-[1,1′-biphenyl]-2-yl)-5-methylisoxazole-3-carboxamide], for which the IC50 runs as follows: (Table 1, read-out: IC50) under 1e-07 M; under setting [1], under 1e-07 M.
On to `CCN1CCC(c2ccc(NC(=O)c3cc(C)on3)c(C3CCCC3)c2)CC1` [Compound 75b, N-(2-Cyclopentyl-4-(1-ethylpiperidin-4-yl)phenyl)-5-methylisoxazole-3-carboxamide], for which the IC50 is over 1e-06 M (Table 1, read-out: IC50) and over 1e-06 M under setting [1].
Regarding `Cc1cc(C(=O)Nc2ccc(C3CCN(C)CC3)cc2C2=CCCCC2)no1` [Compound 67b, 5-methyl-N-(5-(1-methylpiperidin-4-yl)-2′,3′,4′,5′-tetrahydro-[1,1′-biphenyl]-2-yl)isoxazole-3-carboxamide], the IC50 was under 1e-07 M (Table 1, read-out: IC50) and under 1e-07 M under setting [1].
Regarding `Cc1cc(C(=O)Nc2ccc(C3CCNCC3)cc2C2CCCC2)no1` [Compound 66b, N-(2-Cyclopentyl-4-(piperidin-4-yl)phenyl)-5-methylisoxazole-3-carboxamide], the IC50 is over 1e-06 M (Table 1, read-out: IC50) and over 1e-06 M under setting [1].
As for `Cc1cc(C(=O)Nc2ccc(C3CC(C)(C)NC(C)(C)C3)cc2C2=CCC(C)(C)CC2)no1` [Compound 92c, N-(4′,4′-dimethyl-5-(2,2,6,6-tetramethylpiperidin-4-yl)-2,3′,4′,5′-tetrahydro-[1,1′-biphenyl]-2-yl)-5-methylisoxazole-3-carboxamide], the IC50 (Table 2, read-out: IC50 (μm)) is under 1e-07 M and the IC50 under setting [1] was under 1e-07 M.
For the molecule `Cc1cc(C(=O)Nc2cc(NC(=O)c3cnn(-c4ccccc4)c3C(F)(F)F)ccc2C)no1` [Compound 5s, 5-methyl-N-(2-methyl-5-(1-phenyl-5-(trifluoromethyl)-1H-pyrazole-4-carboxamido)phenyl)isoxazole-3-carboxamide], the IC50 under setting [1] was over 1e-06 M.
The same measure, in the same setting: the same measure for `Cc1cc(C(=O)Nc2ccc(C3CC[N+](C)(C)CC3)cc2C2=CCCCC2)no1` [Compound 79b, 1,1-dimethyl-4-(6-(5-methylisoxazole-3-carboxamido)-2′,3′,4′,5′-tetrahydro-[1,1′-biphenyl]-3-yl)piperidin-1-ium]: under 1e-07 M.
On to `CCN1CCC(c2ccc(NC(=O)c3cc(C)on3)c(C3CCCCC3)c2)CC1` [Compound 74b, N-(2-cyclohexyl-4-(1-ethylpiperidin-4-yl)phenyl)-5-methylisoxazole-3-carboxamide], for which the IC50 is over 1e-06 M (Table 1, read-out: IC50) and over 1e-06 M under setting [1].
Turning to `Cc1cc(C(=O)Nc2ccc(C3CC(C)(C)NC(C)(C)C3)cc2C2=CCCCC2)no1` [Compound 92a, 5-methyl-N-(5-(2,2,6,6-tetramethylpiperidin-4-yl)-2′,3′,4′,5′-tetrahydro-[1,1′-biphenyl]-2-yl)isoxazole-3-carboxamide], the IC50 by setting is: (Table 2, read-out: IC50 (μm)) 1e-07 to 1e-06 M; under setting [1], under 1e-07 M.
With `Cc1cc(C(=O)Nc2cc(NC(=O)c3cc(NC4CCN(C)CC4)cc(-n4ccnc4C)c3)ccc2C)no1` [Compound 5h, 5-methyl-N-(2-methyl-5-(3-(2-methyl-1H-imidazol-1-yl)-5-((1-methylpiperidin-4-yl)amino)benzamido)phenyl)isoxazole-3-carboxamide], the IC50 under setting [1] is over 1e-06 M.
In the case of `Cc1cc(C(=O)Nc2ccc(C3CCNCC3)cc2-c2cncnc2)no1` [Compound 62b, 5-methyl-N-(4-(piperidin-4-yl)-2-(pyrimidin-5-yl)phenyl)isoxazole-3-carboxamide], the 50% inhibitory concentration (IC50) is, setting by setting: (Table 1, read-out: IC50) over 1e-06 M; under setting [1], over 1e-06 M.
Consider `Cc1cc(C(=O)Nc2ccc(C3CCCN(C)CC3)cc2C2=CCCCC2)no1` (stereo not drawn) [Compound 67c, 5-methyl-N-(5-(1-methylazepan-4-yl)-2′,3′,4′,5′-tetrahydro-[1,1′-biphenyl]-2-yl)isoxazole-3-carboxamide], for which the IC50 was in the range of 1e-07 to 1e-06 M (Table 1, read-out: IC50) and 1e-07 to 1e-06 M under setting [1].
Turning to `Cc1cc(C(=O)Nc2ccc(C3CC(C)(C)NC(C)(C)C3)cc2C2=CCCCCC2)no1` [Compound 92d, N-(2-(cyclohept-1-en-1-yl)-4-(2,2,6,6-tetramethylpiperidin-4-yl)phenyl)-5-methylisoxazole-3-carboxamide], the 50% inhibitory concentration (IC50) lay in the range of 1e-07 to 1e-06 M (Table 2, read-out: IC50 (μm)) and 1e-07 to 1e-06 M under setting [1].
In the case of `Cc1cc(C(=O)Nc2ccc(C3CCN(C)CC3)cc2C2CCCCC2)no1` [Compound 69b, N-(2-cyclohexyl-4-(1-methylpiperidin-4-yl)phenyl)-5-methylisoxazole-3-carboxamide], the IC50 was over 1e-06 M (Table 1, read-out: IC50) and over 1e-06 M under setting [1].
With `Cc1cc(C(=O)Nc2cc(NC(=O)c3cc(N[C@@H]4CCCN(C)C4)cc(C(F)(F)F)c3)ccc2C)no1` [Compound 5l, (R)-5-Methyl-N-(2-methyl-5-(3-((1-methylpiperidin-3-yl)amino)-5-(trifluoromethyl)benzamido)phenyl)isoxazole-3-carboxamide], under setting [1], the IC50 is over 1e-06 M.
Take `Cc1cc(C(=O)Nc2ccc(C3CCNCC3)cc2C2=CCCCC2)no1` [Compound 60b, 5-methyl-N-(5-(piperidin-4-yl)-2′,3′,4′,5′-tetrahydro-[1,1′-biphenyl]-2-yl)isoxazole-3-carboxamide]: the IC50 was under 1e-07 M (Table 1, read-out: IC50) and under 1e-07 M under setting [1].
In the case of `Cc1cc(C(=O)Nc2ccc(C3CCNCC3)cc2C2=CCCC2)no1` [Compound 61b, N-(2-(Cyclopent-1-en-1-yl)-4-(piperidin-4-yl)phenyl)-5-methylisoxazole-3-carboxamide], the IC50 reads like this: (Table 1, read-out: IC50) over 1e-06 M; under setting [1], over 1e-06 M.
Take `Cc1cc(C(=O)Nc2ccc(C3CCCNCC3)cc2C2=CCCCC2)no1` (stereo not drawn) [Compound 60c, N-(5-(azepan-4-yl)-2′,3′,4′,5′-tetrahydro-[1,1′-biphenyl]-2-yl)-5-methylisoxazole-3-carboxamide]: the IC50 reads like this: (Table 1, read-out: IC50) under 1e-07 M; under setting [1], under 1e-07 M.
With `Cc1cc(C(=O)Nc2cc(NC(=O)c3cc(N4CCC([N+](C)(C)C)C4)cc(C(F)(F)F)c3)ccc2C)no1` (stereo not drawn) [Compound 5m, N,N,N-trimethyl-1-(3-((4-methyl-3-(5-methylisoxazole-3-carboxamido)phenyl)carbamoyl)-5-(trifluoromethyl)phenyl)pyrrolidin-3-aminium], under setting [1], the IC50 is over 1e-06 M.
In the case of `CCN1CCC(c2ccc(NC(=O)c3cc(C)on3)c(C3=CCC(C)CC3)c2)CC1` (stereo not drawn) [Compound 72b, N-(5-(1-Ethylpiperidin-4-yl)-4′-methyl-2′,3′,4′,5′-tetrahydro-[1,1′-biphenyl]-2-yl)-5-methylisoxazole-3-carboxamide], the IC50 is under 1e-07 M (Table 1, read-out: IC50) and under 1e-07 M under setting [1].
For the molecule `Cc1cc(C(=O)Nc2ccc(C3CCCNCC3)cc2C2=CCC(C)(C)CC2)no1` (stereo not drawn) [Compound 64c, N-(5-(azepan-4-yl)-4′,4′-dimethyl-2′,3′,4′,5′-tetrahydro-[1,1′-biphenyl]-2-yl)-5-methylisoxazole-3-carboxamide], the IC50 reads like this: (Table 1, read-out: IC50) under 1e-07 M; under setting [1], under 1e-07 M.
Take `CCN1CCC(c2ccc(NC(=O)c3cc(C)on3)c(C3=CCC(C)(C)CC3)c2)CC1` [Compound 73b, N-(5-(1-ethylpiperidin-4-yl)-4′,4′-dimethyl-2′,3′,4′,5′-tetrahydro-[1,1′-biphenyl]-2-yl)-5-methylisoxazole-3-carboxamide]: the IC50 is under 1e-07 M (Table 1, read-out: IC50) and under 1e-07 M under setting [1].
For the molecule `CCN1CCC(c2ccc(NC(=O)c3cc(C)on3)c(C3=CCCC3)c2)CC1` [Compound 71b, N-(2-(Cyclopent-1-en-1-yl)-4-(1-ethylpiperidin-4-yl)phenyl)-5-methylisoxazole-3-carboxamide], the IC50 (Table 1, read-out: IC50) was over 1e-06 M and the IC50 under setting [1] is over 1e-06 M.
Turning to `Cc1cc(C(=O)Nc2cc(NC(=O)c3ccc4ccccc4n3)ccc2C)no1` [Compound 5q, 5-methyl-N-(2-methyl-5-(quinoline-2-carboxamido)phenyl)isoxazole-3-carboxamide], under setting [1], the concentration for half-maximal inhibition (IC50) was over 1e-06 M.
For the molecule `Cc1cc(C(=O)Nc2ccc(NC3CCOCC3)nc2C)no1` [Compound 17b, 5-methyl-N-(2-methyl-6-((tetrahydro-2H-pyran-4-yl)amino)pyridin-3-yl)isoxazole-3-carboxamide], under setting [1], the IC50 was under 1e-07 M.
With `Cc1cc(C(=O)Nc2ccc(C3CC[N+](C)(C)CC3)cc2C2CCCCC2)no1` [Compound 81b, 4-(3-cyclohexyl-4-(5-methylisoxazole-3-carboxamido)phenyl)-1,1-dimethylpiperidin-1-ium], under setting [1], the IC50 lay within 1e-07 to 1e-06 M.
